Assay results published in the NIST ThermoML archive (doi:10.1016/j.jct.2019.03.014).
± gives the expanded uncertainty stated by the source.

Tests used:
[1] = Ring tensiometer
[2] = xn = mol fraction of the nth substance listed; conditions: Ring tensiometer

CCCCO [butan-1-ol]
[1]
Conditions | surface tension liquid-gas [mN/m]
293.2 K | 24.7 ± 0.7
303.2 K | 23.8 ± 0.7
313.2 K | 22.8 ± 0.7
323.2 K | 21.6 ± 0.7
333.2 K | 20.3 ± 0.7

CCCCO [butan-1-ol] + OCC(O)CO
[2], x1 = 1
Conditions | surface tension liquid-gas [mN/m]
293.2 K | 24.7 ± 0.7
303.2 K | 23.8 ± 0.7
313.2 K | 22.8 ± 0.68
323.2 K | 21.6 ± 0.7
333.2 K | 20.3 ± 0.7

CCO [ethanol]
[1]
Conditions | surface tension liquid-gas [mN/m]
293.2 K | 22.3 ± 0.7
303.2 K | 21.4 ± 0.7
313.2 K | 20.6 ± 0.7
323.2 K | 19.8 ± 0.7
333.2 K | 19 ± 0.7

CCO [ethanol] + OCC(O)CO
[2], x1 = 1
Conditions | surface tension liquid-gas [mN/m]
293.2 K | 22.3 ± 0.7
303.2 K | 21.4 ± 0.7
313.2 K | 20.6 ± 0.7
323.2 K | 19.8 ± 0.7
333.2 K | 19 ± 0.7

OCC(O)CO [glycerol]
[1]
Conditions | surface tension liquid-gas [mN/m]
293.2 K | 63.1 ± 1
298.2 K | 62.9 ± 1
303.2 K | 62.4 ± 1
313.2 K | 62 ± 1
323.2 K | 61.1 ± 1
333.2 K | 60.5 ± 0.9

OCC(O)CO [glycerol] + CC(C)O
surface tension liquid-gas [mN/m], [2]
Conditions | x2 = 0 | x2 = 0.1 | x2 = 0.2 | x2 = 0.3 | x2 = 0.4 | x2 = 0.5 | x2 = 0.6 | x2 = 0.7 | x2 = 0.8 | x2 = 0.9
293.2 K | 63.1 ± 1 | 45.7 ± 0.9 | 34.3 ± 0.8 | 28.8 ± 0.72 | 26.7 ± 0.7 | 25.6 ± 0.7 | 24.8 ± 0.7 | 23.9 ± 0.7 | 22.8 ± 0.7 | 21.9 ± 0.7
303.2 K | 62.4 ± 1 | 45.1 ± 0.9 | 34 ± 0.8 | 28.5 ± 0.7 | 26.2 ± 0.7 | 25.1 ± 0.7 | 24.2 ± 0.7 | 23.4 ± 0.7 | 22.3 ± 0.7 | 21.4 ± 0.7
313.2 K | 62 ± 1 | 44.4 ± 0.9 | 33.6 ± 0.8 | 28 ± 0.7 | 25.8 ± 0.7 | 24.6 ± 0.7 | 23.7 ± 0.7 | 23 ± 0.7 | 21.8 ± 0.7 | 20.9 ± 0.7
323.2 K | 61.1 ± 1 | 43.9 ± 0.9 | 32.9 ± 0.8 | 27.6 ± 0.7 | 25.5 ± 0.69 | 24.1 ± 0.7 | 23.5 ± 0.7 | 22.5 ± 0.7 | 21.2 ± 0.7 | 20 ± 0.7
333.2 K | 60.5 ± 0.9 | 43.2 ± 0.9 | 32.2 ± 0.8 | 27.2 ± 0.7 | 25 ± 0.7 | 23.7 ± 0.7 | 22.6 ± 0.7 | 22.1 ± 0.7 | 20.6 ± 0.7 | 19.1 ± 0.7

OCC(O)CO [glycerol] + CCCCO
surface tension liquid-gas [mN/m], [2]
Conditions | x2 = 0 | x2 = 0.1 | x2 = 0.2 | x2 = 0.3 | x2 = 0.4 | x2 = 0.5 | x2 = 0.6 | x2 = 0.7 | x2 = 0.8 | x2 = 0.9
293.2 K | 63.1 ± 1 | 33.1 ± 0.8 | 28 ± 0.7 | 26.4 ± 0.7 | 26.2 ± 0.7 | 25.9 ± 0.7 | 25.7 ± 0.7 | 25.4 ± 0.7 | 25.2 ± 0.7 | 24.8 ± 0.7
303.2 K | 62.4 ± 1 | 32.9 ± 0.8 | 27.7 ± 0.7 | 26.2 ± 0.7 | 26 ± 0.7 | 25.7 ± 0.7 | 25.4 ± 0.7 | 25.1 ± 0.7 | 24.8 ± 0.7 | 24.3 ± 0.7
313.2 K | 62 ± 1 | 32.8 ± 0.8 | 27.3 ± 0.7 | 26.1 ± 0.7 | 25.8 ± 0.7 | 25.5 ± 0.7 | 25.1 ± 0.7 | 24.8 ± 0.7 | 24.5 ± 0.7 | 23.7 ± 0.7
323.2 K | 61.1 ± 1 | 32.7 ± 0.8 | 27 ± 0.7 | 25.6 ± 0.7 | 25.2 ± 0.7 | 24.7 ± 0.7 | 24.3 ± 0.7 | 24 ± 0.7 | 23.7 ± 0.7 | 22.7 ± 0.7
333.2 K | 60.5 ± 0.9 | 32.5 ± 0.8 | 26.7 ± 0.7 | 25.3 ± 0.7 | 24.8 ± 0.7 | 24.3 ± 0.7 | 23.7 ± 0.7 | 23.2 ± 0.7 | 22.9 ± 0.7 | 21.6 ± 0.7

OCC(O)CO [glycerol] + CCCO
surface tension liquid-gas [mN/m], [2]
Conditions | x2 = 0 | x2 = 0.1 | x2 = 0.2 | x2 = 0.3 | x2 = 0.4 | x2 = 0.5 | x2 = 0.6 | x2 = 0.7 | x2 = 0.8 | x2 = 0.9
293.2 K | 63.1 ± 1 | 41.8 ± 0.9 | 33.4 ± 0.8 | 30.1 ± 0.7 | 28.3 ± 0.7 | 27.3 ± 0.7 | 26.5 ± 0.7 | 26 ± 0.7 | 25.3 ± 0.7 | 24.7 ± 0.7
303.2 K | 62.4 ± 1 | 41.5 ± 0.8 | 33.1 ± 0.7 | 29.7 ± 0.7 | 27.9 ± 0.7 | 26.9 ± 0.7 | 26.1 ± 0.7 | 25.5 ± 0.7 | 24.8 ± 0.7 | 24.1 ± 0.7
313.2 K | 62 ± 1 | 41.2 ± 0.8 | 32.8 ± 0.7 | 29.3 ± 0.7 | 27.7 ± 0.7 | 26.4 ± 0.7 | 25.7 ± 0.7 | 25 ± 0.7 | 24.2 ± 0.7 | 23.3 ± 0.7
323.2 K | 61.1 ± 1 | 40.9 ± 0.8 | 32.5 ± 0.7 | 28.9 ± 0.7 | 27.2 ± 0.7 | 26 ± 0.7 | 25.3 ± 0.7 | 24.5 ± 0.7 | 23.6 ± 0.7 | 22.5 ± 0.7
333.2 K | 60.5 ± 0.9 | 40.5 ± 0.8 | 32.2 ± 0.7 | 28.5 ± 0.7 | 26.6 ± 0.7 | 25.6 ± 0.7 | 25 ± 0.7 | 24 ± 0.7 | 23 ± 0.7 | 21.6 ± 0.7

OCC(O)CO [glycerol] + CCO
surface tension liquid-gas [mN/m], [2]
Conditions | x2 = 0 | x2 = 0.1 | x2 = 0.2 | x2 = 0.3 | x2 = 0.4 | x2 = 0.5 | x2 = 0.6 | x2 = 0.7 | x2 = 0.8 | x2 = 0.9
293.2 K | 63.1 ± 1 | 52.9 ± 0.9 | 41.7 ± 0.8 | 36.1 ± 0.8 | 31.9 ± 0.7 | 29 ± 0.7 | 27.5 ± 0.7 | 26.2 ± 0.7 | 24.9 ± 0.7 | 23.7 ± 0.7
303.2 K | 62.4 ± 1 | 52.4 ± 0.9 | 41.4 ± 0.8 | 35.9 ± 0.8 | 31.6 ± 0.7 | 28.5 ± 0.7 | 27.1 ± 0.7 | 25.4 ± 0.7 | 24.2 ± 0.7 | 23.2 ± 0.7
313.2 K | 62 ± 1 | 52 ± 0.9 | 41.1 ± 0.8 | 35.7 ± 0.8 | 31.2 ± 0.7 | 27.9 ± 0.7 | 26.7 ± 0.7 | 24.5 ± 0.7 | 23.5 ± 0.7 | 22.6 ± 0.7
323.2 K | 61.1 ± 1 | 51.5 ± 0.9 | 40.7 ± 0.8 | 35.4 ± 0.8 | 30.9 ± 0.7 | 27.7 ± 0.7 | 26.3 ± 0.7 | 23.6 ± 0.7 | 22.8 ± 0.7 | 22 ± 0.7
333.2 K | 60.5 ± 0.9 | 51.1 ± 0.9 | 40.5 ± 0.8 | 35 ± 0.8 | 30.6 ± 0.7 | 27.2 ± 0.7 | 25.9 ± 0.7 | 22.7 ± 0.7 | 22.1 ± 0.7 | 21.2 ± 0.7

CCCO [propan-1-ol]
[1]
Conditions | surface tension liquid-gas [mN/m]
293.2 K | 23.7 ± 0.7
303.2 K | 22.9 ± 0.7
313.2 K | 22.1 ± 0.7
323.2 K | 21.3 ± 0.7
333.2 K | 20.6 ± 0.7

CCCO [propan-1-ol] + OCC(O)CO
[2], x1 = 1
Conditions | surface tension liquid-gas [mN/m]
293.2 K | 23.7 ± 0.7
303.2 K | 22.9 ± 0.7
313.2 K | 22.1 ± 0.7
323.2 K | 21.3 ± 0.7
333.2 K | 20.6 ± 0.7

CC(C)O [propan-2-ol]
[1]
Conditions | surface tension liquid-gas [mN/m]
293.2 K | 21.4 ± 0.7
303.2 K | 20.7 ± 0.7
313.2 K | 19.7 ± 0.7
323.2 K | 18.7 ± 0.7
333.2 K | 17.6 ± 0.7

CC(C)O [propan-2-ol] + OCC(O)CO
[2], x1 = 1
Conditions | surface tension liquid-gas [mN/m]
293.2 K | 21.4 ± 0.7
303.2 K | 20.7 ± 0.7
313.2 K | 19.7 ± 0.7
323.2 K | 18.7 ± 0.7
333.2 K | 17.6 ± 0.7
